Patent EP0831093A1, “1-Carba-(dethia)-Cephalosporin Derivatives” (F. HOFFMANN-LA ROCHE AG, priority 1996, dated 1998)
Values after ≈ are worked out from the molar mass of the structure shown. Structures can show the parent of a compound that is named as a salt. Where two headings read alike, the source gives them in different places.

Assays:
Test in all cases: MIC, agar dilution method in Mueller Hinton agar
Format in all cases: cell-based
C.freundii 43 = conditions: Citrobacter freundii
Protocol: (§1) In vitro activity was determined by minimum inhibitory concentration in a microorganism spectum by the agar dilution method in Mueller Hinton agar, inoculum = 10^4 CFU/spot.

C.freundii 902 = conditions: Citrobacter freundii
Protocol: as §1

E.cloacae 908R = conditions: Enterobacter cloacae
Protocol: as §1

E.cloacae 908SSi = conditions: Enterobacter cloacae
Protocol: as §1

E.coli 25922 = conditions: Escherichia coli
Protocol: as §1

E.coli TEM1 = conditions: Escherichia coli
Protocol: as §1

E.faecalis 6 = conditions: Enterococcus faecalis
Protocol: as §1

K.pneumoniae 418 = conditions: Klebsiella pneumoniae
Protocol: as §1

P.aeruginosa ATCC27853 = conditions: Pseudomonas aeruginosa
Protocol: as §1

P.mirabilis 2117 = conditions: Proteus mirabilis
Protocol: as §1

P.vulgaris 1028 = conditions: Proteus vulgaris
Protocol: as §1

S.aureus 6538 = conditions: Staphylococcus aureus
Protocol: as §1

S.aureus 743 (MRSA) = conditions: Staphylococcus aureus
Protocol: as §1

S.marcescens 69438 = conditions: Serratia marcescens
Protocol: as §1

S.pneumoniae. 907 = conditions: Streptococcus pneumoniae
Protocol: as §1

S.pyogenes b 15 = conditions: Streptococcus pyogenes
Protocol: as §1

[1] = C.freundii 43, inoculum = 10^4 CFU/spot, read-out: MIC
[2] = C.freundii 902, inoculum = 10^4 CFU/spot, read-out: MIC
[3] = E.cloacae 908R, inoculum = 10^4 CFU/spot, read-out: MIC
[4] = E.cloacae 908SSi, inoculum = 10^4 CFU/spot, read-out: MIC
[5] = E.coli 25922, inoculum = 10^4 CFU/spot, read-out: MIC
[6] = E.faecalis 6, inoculum = 10^4 CFU/spot, read-out: MIC
[7] = K.pneumoniae 418, inoculum = 10^4 CFU/spot, read-out: MIC
[8] = P.aeruginosa ATCC27853, inoculum = 10^4 CFU/spot, read-out: MIC
[9] = P.mirabilis 2117, inoculum = 10^4 CFU/spot, read-out: MIC
[10] = P.vulgaris 1028, inoculum = 10^4 CFU/spot, read-out: MIC
[11] = S.aureus 6538, inoculum = 10^4 CFU/spot, read-out: MIC
[12] = S.aureus 743 (MRSA), inoculum = 10^4 CFU/spot, read-out: MIC
[13] = S.marcescens 69438, inoculum = 10^4 CFU/spot, read-out: MIC
[14] = S.pneumoniae. 907, inoculum = 10^4 CFU/spot, read-out: MIC
[15] = S.pyogenes b 15, inoculum = 10^4 CFU/spot, read-out: MIC

Row | Compound | MIC (C.freundii 43; [1]) [µg/mL] | MIC (C.freundii 902; [2]) [µg/mL] | MIC (E.cloacae 908R; [3]) [µg/mL] | MIC (E.cloacae 908SSi; [4]) [µg/mL] | MIC (E.coli 25922; [5]) [µg/mL] | MIC (E.coli TEM1) [µg/mL] | MIC (E.faecalis 6; [6]) [µg/mL] | MIC (K.pneumoniae 418; [7]) [µg/mL] | MIC (P.aeruginosa ATCC27853; [8]) [µg/mL] | MIC (P.mirabilis 2117; [9]) [µg/mL] | MIC (P.vulgaris 1028; [10]) [µg/mL] | MIC (S.aureus 6538; [11]) [µg/mL] | MIC (S.aureus 743 (MRSA); [12]) [µg/mL] | MIC (S.marcescens 69438; [13]) [µg/mL] | MIC (S.pneumoniae. 907; [14]) [µg/mL] | MIC (S.pyogenes b 15; [15]) [µg/mL] | further results
1 | C[n+]1cccc(N2CC/C(=C\C3=C(C(=O)[O-])N4C(=O)[C@@H](NC(=O)/C(=N\O)c5csc(N)n5)[C@H]4CC3)C2=O)c1 [C, (6R,7S)-7-[(Z)-2-(2-Amino-thiazol-4-yl)-2-hydroxyimino-acetylamino]-3-[(E)-1-(1-methyl-pyridin-1-ium-3-yl)-2-oxo-pyrrolidin-3-ylidenemethyl]-8-oxo-1-aza-bicyclo[4.2.0]oct-2-ene-2-carboxylate] | 0.5 (≈ 0.93 µM) | ≤ 0.06 | 2 (≈ 3.72 µM) | ≤ 0.06 | ≤ 0.06 | ≤ 0.06 | 0.5 (≈ 0.93 µM) | ≤ 0.06 | 4 (≈ 7.44 µM) | ≤ 0.06 | 16 (≈ 29.8 µM) | 1 (≈ 1.86 µM) | 8 (≈ 14.9 µM) | 0.12 (≈ 0.223 µM) | ≤ 0.06 | ≤ 0.06 | –
2 | Nc1nc(/C(=N/O)C(=O)N[C@@H]2C(=O)N3C(C(=O)O)=C(/C=C4\CCN(c5ccc(O)cc5)C4=O)CC[C@H]23)cs1 [B, (6R,7S)-7-[(Z)-2-(Amino-thiazol-4-yl)-2-hydroxyimino-acetylamino]-3-[(E)-1-(4-hydroxy-phenyl)-2-oxo-pyrrolidin-3-ylidenemethyl]-8-oxo-1-aza-bicyclo[4.2.0]oct-2-ene-2-carboxylic acid sodium salt (1:1)] | 32 | 0.5 | > 32 | 0.5 | 0.25 | 0.12 | 4 | 0.12 | 32 | – | > 32 | 1 | 32 | 4 | ≤ 0.06 | ≤ 0.06 | –
3 | Nc1nc(/C(=N/O)C(=O)N[C@@H]2C(=O)N3C(C(=O)[O-])=C(/C=C4\CCN(CC(F)(F)F)C4=O)CC[C@H]23)cs1.[Na+] [A, (6R,7S)-7-[(Z)-2-(2-Amino-thiazol-4-yl)-2-hydroxyimino-acetylamino]-8-oxo-3-[(E)-2-oxo-1-(2,2,2-trifluoro-ethyl)-pyrrolidin-3-ylidenemethyl]-1-aza-bicyclo[4.2.0]oct-2-ene-2-carboxylic acid sodium salt (1:1)] | – | – | – | – | – | 0.12 | – | – | – | – | – | – | – | – | – | – | MIC (C.freundii 43; 43): 8 µg/mL; MIC (C.freundii 902; 902): 0.25 µg/mL; MIC (E.cloacae 908R; 908R): > 32 µg/mL; MIC (E.cloacae 908SSi; 908SSI): 2 µg/mL; MIC (E.coli 25922; 25922): ≤ 0.06 µg/mL; MIC (E.faecalis 6; 6): 8 µg/mL; MIC (K.pneumoniae 418; 418): 0.12 µg/mL; MIC (P.aeruginosa ATCC27853; ATCC27853): 32 µg/mL; MIC (P.mirabilis 2117; 2117): ≤ 0.06 µg/mL; MIC (P.vulgaris 1028; 1028): > 32 µg/mL; MIC (S.aureus 6538; 6538): 1 µg/mL; MIC (S.aureus 743 (MRSA); MRSA): 32 µg/mL; MIC (S.marcescens 69438; 69438): 2 µg/mL; MIC (S.pneumoniae. 907): ≤ 0.06 µg/mL; MIC (S.pyogenes b 15; 15): ≤ 0.06 µg/mL
4 | C[n+]1ccc(N2CC/C(=C\C3=C(C(=O)[O-])N4C(=O)[C@@H](NC(=O)/C(=N\OC5CCCC5)c5csc(N)n5)[C@H]4CC3)C2=O)cc1 [G, (6R,7S)-7-[(Z)-2-(2-Amino-thiazol-4-yl)-2-cyclopentyloxyimino-acetylamino]-3-[(E)-1-(1-methyl-pyridin-1-ium-4-yl)-2-oxo-pyrrolidin-3-ylidenemethyl]-8-oxo-1-aza-bicyclo[4.2.0]oct-2-ene-2-carboxylate] | 1 (≈ 1.65 µM) | ≤ 0.06 | 2 (≈ 3.3 µM) | ≤ 0.06 | ≤ 0.06 | 0.5 (≈ 0.826 µM) | 1 (≈ 1.65 µM) | 0.25 (≈ 0.413 µM) | 4 (≈ 6.6 µM) | 1 (≈ 1.65 µM) | 16 (≈ 26.4 µM) | 2 (≈ 3.3 µM) | 32 (≈ 52.8 µM) | 0.5 (≈ 0.826 µM) | ≤ 0.06 | ≤ 0.06 | –
5 | C[n+]1cccc(N2CC/C(=C\C3=C(C(=O)[O-])N4C(=O)[C@@H](NC(=O)/C(=N\OCC(=O)O)c5csc(N)n5)[C@H]4CC3)C2=O)c1 [F, (6R,7S)-7-[(Z)-2-(2-Amino-thiazol-4-yl)-2-carboxymethoxyimino-acetylamino]-3-[(E)-1-(1-methyl-pyridin-1-ium-3-yl)-2-oxo-pyrrolidin-3-ylidenemethyl]-8-oxo-1-aza-bicyclo[4.2.0]oct-2-ene-2-carboxylate Na salt (1:1)] | 2 | ≤ 0.06 | 4 | ≤ 0.06 | ≤ 0.06 | ≤ 0.06 | > 32 | ≤ 0.06 | 1 | ≤ 0.06 | 0.12 | 32 | > 32 | ≤ 0.06 | ≤ 0.06 | 0.12 | –
6 | C[n+]1cccc(N2CC/C(=C\C3=C(C(=O)[O-])N4C(=O)[C@@H](NC(=O)/C(=N\O)c5nsc(N)n5)[C@H]4CC3)C2=O)c1 [D, (6R,7S)-7-[(Z)-2-(5-Amino-[1,2,4]thiadiazol-3-yl)-hydroxyimino-acetylamino]-3-[(E)-1-(1-methyl-pyridin-1-ium-3-yl)-2-oxo-pyrrolidin-3-ylidenemethyl]-8-oxo-1-aza-bicyclo[4.2.0]oct-2-ene-2-carboxylate] | 0.5 (≈ 0.928 µM) | ≤ 0.06 | 1 (≈ 1.86 µM) | 0.12 (≈ 0.223 µM) | 0.06 (≈ 0.111 µM) | 0.25 (≈ 0.464 µM) | 0.25 (≈ 0.464 µM) | ≤ 0.06 | 8 (≈ 14.9 µM) | 0.12 (≈ 0.223 µM) | > 32 | 0.5 (≈ 0.928 µM) | 8 (≈ 14.9 µM) | 0.12 (≈ 0.223 µM) | ≤ 0.06 | ≤ 0.06 | –
7 | C[n+]1cccc(N2CC/C(=C\C3=C(C(=O)[O-])N4C(=O)[C@@H](NC(=O)/C(=N\OC5CCCC5)c5nsc(N)n5)[C@H]4CC3)C2=O)c1 [E, (6R,7S)-7-[(Z)-2-(5-Amino-[1,2,4]thiadiazol-3-yl)-cyclopentyloximino-acetylamino]-3-[(E)-1-(1-methyl-pyridin-1-ium-3-yl)-2-oxo-pyrroliden-3-ylidenemethyl]-8-oxo-1-aza-bicyclo[4.2.0]oct-2-ene-2-carboxylate] | 0.5 (≈ 0.824 µM) | ≤ 0.06 | 0.5 (≈ 0.824 µM) | ≤ 0.06 | ≤ 0.06 | 1 (≈ 1.65 µM) | 1 (≈ 1.65 µM) | 0.25 (≈ 0.412 µM) | 8 (≈ 13.2 µM) | 2 (≈ 3.3 µM) | 32 (≈ 52.7 µM) | 0.5 (≈ 0.824 µM) | 4 (≈ 6.59 µM) | 1 (≈ 1.65 µM) | ≤ 0.06 | ≤ 0.06 | –
